GI50 and TGI data for 31 compounds are collected here from PubChem BioAssay (NCI).

Values joined by “and” are separate entries in the source; they are usually repeats but may differ in a detail not shown here. Equal values may be shown once.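 Each compound was tested at five concentrations against cells in 96-well plates for 48 hours. Here, GI50 denotes the concentration required for 50% inhibition of growth. TGI denotes the concentration required for complete inhibition of growth.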

In one assay the test system is IGROV1 ovarian. In words: growth of human tumour cells (NCI), 48 h.
As for `CC(C)CC(=O)[O-].CC(C)CC(=O)[O-].N.N.N.N.[Co+3].[O-][Cl+3]([O-])([O-])[O-]`, the GI50 was over 100 µM and the TGI was over 100 µM.
With `COc1cc(C2c3cc4c(cc3C(NCC(O)CO)C3COC(=O)[C@H]23)OCO4)cc(OC)c1OC` (some centres not stated), the TGI is over 100 µM.
On the same count and under the same terms, next, `COC(=O)CC(=O)C[P+](c1ccccc1)(c1ccccc1)c1ccccc1`: over 218 µM.
Still for that read-out and setting: for `CCCCN(CCCC)C(=O)C(=O)C(C#N)c1ccc(C)cc1` (configuration not stated) the value was over 100 µM; for `Cc1ccc(S(=O)(=O)C(CC(=O)N2CCCC2)C(=O)c2ccccc2)cc1` (configuration not stated), over 100 µM.
As to `CC1(C)CC(/C=C2/OC(=O)c3ccccc32)=C(C#N)C(=O)O1`, the TGI was over 100 µM.
As to `Cc1nc2c(nc1Cl)nc(Oc1ccc(Cl)cc1)c1ccccc12`, the TGI was over 100 µM.
Compound `CC(=O)Nc1ccccc1Sc1ccccc1` displayed a TGI of over 100 µM.
Take `COC(=O)C[C@H]1CCC2(OCCO2)[C@]1(C)C(=O)OC`: the TGI is over 100 µM.
On the same count and under the same terms, next, `CCCCCCCCCC[C@@H](O)[C@@H]1CC[C@H]([C@H]2CC[C@@H]([C@@H](O)CCCCCCCCCC[C@H]3CC(CC(C)=O)C(=O)O3)O2)O1` (some centres not stated): 39.2 µM; `CCOc1ccc2c(c1)[n+]([O-])c(S(=O)(=O)c1ccc(C)cc1)c(N)[n+]2[O-]`: over 100 µM; `CC12CC[C@@H](C(C)(C)O)C1[C@@H](O)CC1(C)C2CCC2[C@@]3(C)CC[C@H](O)C(C)(C)C3C(O)C[C@]21C` (some centres not stated): 39.5 µM.
Same read-out and setting: for `CCOC(=O)NC(=O)c1cn(C2OC(COC(=O)CCCCCCCCC(=O)OCC3OC(n4cc(C(=O)NC(=O)OCC)c(=O)[nH]c4=O)C(O)C3O)C(O)C2O)c(=O)[nH]c1=O` (configuration not stated) the value was over 100 µM; for `Cc1ccc(C)c(NC(=O)CC/C(=N\NC(=O)C(=O)NN)C(C)C(=O)c2ccc(O)cc2)c1` (configuration not stated), over 100 µM.
Still for that read-out and setting: next, `N=C1CSC2=NC3=C(CCC/C3=C\c3ccccc3)C(c3ccccc3)N12` (configuration not stated): 20.1 µM; `COc1ccc(CNc2cc(OC)c(OC)c(OC)c2)cc1`: over 100 µM.
`COc1ccccc1C1C(C(=O)Nc2ccccc2)=C(C)NC(C)=C1C(=O)Nc1ccccc1` displayed a TGI of over 100 µM.
The compound `OCc1ccc2[n+](c1)CCC1c3ccccc3NC21` (configuration not stated) had a TGI of over 300 µM.
With `COc1cccc(-c2cc(=O)c3cc(N(C)C)ccc3[nH]2)c1`, the GI50 is 0.0892 µM and 0.0423 µM and 0.0174 µM; the TGI is over 100 µM.
For the compound `CCCCCCCCCCCC(=O)CC(=O)c1c(O)cccc1O`, the TGI stood at 36.4 µM.
The same measure, in the same setting: for `CN(C(=O)C12C3C4C1C1C2C3C41C(=O)C(C)(C)C)C(C)(C)C` (configuration not stated) the value was over 100 µM; for `Cc1cc2c(cc1C)[n+](=O)c(C(=O)CC(=O)C(=O)Nc1c(C(C)C)cccc1C(C)C)c(C)n2[O-]`, over 100 µM; for `COc1ccc2cc1Oc1ccc(cc1)CC1c3cc(c(OC)cc3CCN1C)Oc1c3c(cc4c1C(C2)N(C)CC4)OCO3` (configuration not stated), 28.8 µM.
The same measure, in the same setting: next, `COc1ccc(OC)c(NC(=O)C(=O)C(C(C)=O)c2nc3ccc(Cl)cc3[nH]c2=O)c1` (configuration not stated): over 50 µM.
Same read-out and setting: next, `N#CC(C(=N/O)/C(=N/O)C(C#N)c1ccc(Cl)cc1)c1ccc(Cl)cc1` (configuration not stated): over 100 µM.

For the next assay, the system named is M14 melanoma. In words: growth of human tumour cells (NCI), 48 h.
Compound `CC1(Cl)C(=O)NC(=O)N(C2CC(N=[N+]=[N-])C(CO)O2)C1N=[N+]=[N-]` (configuration not stated) had a TGI of over 100 µM.
Still for that read-out and setting: next, `COc1ccc2ccc3c(c2c1)CN1CCc2cc(OC)c(OC)cc2C1C3` (configuration not stated): over 100 µM; `Cc1nc2cccc([N+](=O)[O-])c2c(NCCCN(C)C)c1C`: over 100 µM; `OCCC1(O)CCC(O)CC1` (configuration not stated): over 100 µM.
The same measure, in the same setting: for `CCCCNC1=C(C(=O)OCC)C(=O)CO1` the value was over 100 µM.
Consider `CC(C)CC(=O)[O-].CC(C)CC(=O)[O-].N.N.N.N.[Co+3].[O-][Cl+3]([O-])([O-])[O-]`, for which the GI50 was over 100 µM and the TGI was over 100 µM.
In turn, `COc1cc(C2c3cc4c(cc3C(NCC(O)CO)C3COC(=O)[C@H]23)OCO4)cc(OC)c1OC` (some centres not stated) displayed a TGI of over 100 µM.
`CCCCN(CCCC)C(=O)C(=O)C(C#N)c1ccc(C)cc1` (configuration not stated) registered a TGI of over 100 µM.
In turn, `Cc1ccc(S(=O)(=O)C(CC(=O)N2CCCC2)C(=O)c2ccccc2)cc1` (configuration not stated) displayed a TGI of over 100 µM.
On the same count and under the same terms, for `CC1(C)CC(/C=C2/OC(=O)c3ccccc32)=C(C#N)C(=O)O1` the value was over 100 µM; for `Cc1nc2c(nc1Cl)nc(Oc1ccc(Cl)cc1)c1ccccc12`, over 100 µM.
For the compound `CC(=O)Nc1ccccc1Sc1ccccc1`, the TGI is over 100 µM.
Same read-out and setting: next, `COC(=O)C[C@H]1CCC2(OCCO2)[C@]1(C)C(=O)OC`: over 100 µM; `CCCCCCCCCC[C@@H](O)[C@@H]1CC[C@H]([C@H]2CC[C@@H]([C@@H](O)CCCCCCCCCC[C@H]3CC(CC(C)=O)C(=O)O3)O2)O1` (some centres not stated): 35.3 µM.
The same measure, in the same setting: for `CCOc1ccc2c(c1)[n+]([O-])c(S(=O)(=O)c1ccc(C)cc1)c(N)[n+]2[O-]` the value was over 100 µM; for `CC12CC[C@@H](C(C)(C)O)C1[C@@H](O)CC1(C)C2CCC2[C@@]3(C)CC[C@H](O)C(C)(C)C3C(O)C[C@]21C` (some centres not stated), over 100 µM.
For `CCOC(=O)NC(=O)c1cn(C2OC(COC(=O)CCCCCCCCC(=O)OCC3OC(n4cc(C(=O)NC(=O)OCC)c(=O)[nH]c4=O)C(O)C3O)C(O)C2O)c(=O)[nH]c1=O` (configuration not stated), the TGI is over 100 µM.
The compound `Cc1ccc(C)c(NC(=O)CC/C(=N\NC(=O)C(=O)NN)C(C)C(=O)c2ccc(O)cc2)c1` (configuration not stated) returned a TGI of over 100 µM.
Compound `N=C1CSC2=NC3=C(CCC/C3=C\c3ccccc3)C(c3ccccc3)N12` (configuration not stated) showed a TGI of 13 µM.
For `COc1ccc(CNc2cc(OC)c(OC)c(OC)c2)cc1`, the TGI was over 100 µM.
Still for that read-out and setting: for `COc1ccccc1C1C(C(=O)Nc2ccccc2)=C(C)NC(C)=C1C(=O)Nc1ccccc1` the value was over 100 µM.
As for `COc1cccc(-c2cc(=O)c3cc(N(C)C)ccc3[nH]2)c1`, the GI50 is 0.0234 µM and 0.00682 µM; the TGI is over 100 µM.
The compound `CCCCCCCCCCCC(=O)CC(=O)c1c(O)cccc1O` gave a TGI of 32.9 µM.
Same read-out and setting: next, `CN(C(=O)C12C3C4C1C1C2C3C41C(=O)C(C)(C)C)C(C)(C)C` (configuration not stated): over 100 µM; `Cc1cc2c(cc1C)[n+](=O)c(C(=O)CC(=O)C(=O)Nc1c(C(C)C)cccc1C(C)C)c(C)n2[O-]`: over 100 µM; `COc1ccc2cc1Oc1ccc(cc1)CC1c3cc(c(OC)cc3CCN1C)Oc1c3c(cc4c1C(C2)N(C)CC4)OCO3` (configuration not stated): 3.52 µM.
In the case of `COc1ccc(OC)c(NC(=O)C(=O)C(C(C)=O)c2nc3ccc(Cl)cc3[nH]c2=O)c1` (configuration not stated), the TGI was over 50 µM.
Regarding `N#CC(C(=N/O)/C(=N/O)C(C#N)c1ccc(Cl)cc1)c1ccc(Cl)cc1` (configuration not stated), the TGI is over 100 µM.

The test system of another assay is MDA-MB-231 breast. As to the kind of experiment: growth of human tumour cells (NCI), 48 h.
Turning to `C=C(CN1CCc2ccccc2C1)c1ccc(C(=O)Nc2cnccn2)cc1`, the GI50 is 27.3 µM and the TGI was over 100 µM.
Regarding `COc1cccc(-c2cc(=O)c3cc(N(C)C)ccc3[nH]2)c1`, the GI50 was 0.0107 µM.

For another assay, the system named is UACC-257 melanoma. As to the kind of experiment: growth of human tumour cells (NCI), 48 h.
On to `CC1(Cl)C(=O)NC(=O)N(C2CC(N=[N+]=[N-])C(CO)O2)C1N=[N+]=[N-]` (configuration not stated), for which the TGI is over 100 µM.
The compound `COc1ccc2ccc3c(c2c1)CN1CCc2cc(OC)c(OC)cc2C1C3` (configuration not stated) displayed a TGI of over 100 µM.
